Patent US11365207B2, “Sulfur-containing polycyclic-hydroxypyridone carboxamide analog against HIV” (priority 2018, dated 2022)
Where a name gives a salt, the structure may show the parent alone. Read-outs that look alike come from different tables or passages of the source.

Legend:
Format in all cases: cell-based
[1] = Toxicity test of C8166 cells (MTT colorimetric method); conditions: human
Experimental: (§1) Human T lymphocytic series C8166 and HIV-1 experiment strain HIV-1IIIB are both from National Institutes of Health (NIH); cells are cultured in the RPMI-1640 complete culture medium containing 10% fetal bovine serum. HIV-1IIIB is prepared by using a conventional method, titration and calculation of TCID 50 of viruses are performed. Virus stock solution is subpackaged and stored at −70° C. Cells and viruses are cryopreserved and recovered according to conventional methods.
6. Toxicity Test of C8166 Cells
100 μl of 4×10^5 ml C8166 was mixed with different to-be-detected drug solutions, and 3 repetition wells were set. Meanwhile, control wells were set. Culture was performed for 3 days under the conditions of 37° C. and 5% CO2. Cytotoxicity was detected with MTT colorimetric method. The OD value was measured with EL ×800 ELIASA, the wavelength was measured as 570/630 nm. The CC50 value was calculated (50% cytotoxic concentration), namely, the concentration of the drug when toxicity was generated for 50% normal T lymphocytic series C8166.
(§2) According to experiment results, fitted curves are drawn using Origin2016, the 50% effective concentrations (EC50) of the samples inhibiting viruses, 50% cell growth inhibition concentrations (CC50) and TI (therapeutic index) value against HIV-1 activity are calculated based on Reed & Muench method, and the TI value is TI=CC50/EC50.
1. Cell growth survival rate (%)=experiment well OD value/control well OD value×100

[2] = tested on: HIV-1IIIB; assay: Inhibition experiment for cytopathic effect (CPE) of HIV-1IIIB, syncytia formation in C8166 cells; conditions: Human immunodeficiency virus 1, 72 h, HIV-1IIIB in C8166 cells, 3 days
Experimental: as §1
7. Inhibition Experiment for Cytopathic Effect (CPE) of HIV-1IIIB
8×10^5/ml C8166 cells were inoculated onto the 96-well cell culture plate containing 100 μl/well drug subjected to gradient multiple proportion dilution in an amount of 50 μl/well, and then 50 μl HIV-1IIIB was added to dilute the supernatant, 1300 TCID 50/well. 3 repetition wells were set. Meanwhile, normal cell control wells without drugs were set. TDF and dolutegravir were positive drug controls. Culture was performed for 3 days under the conditions of 37° C. and 5% CO2, and syncytia formation were counted under the inverted microscope (100×). EC50 (50% Effective Concentration) is the concentration of the drug when 50% of syncytia formation is inhibited.
as §2
2. HIV-1 cytopathic cell inhibition rate (%)=(1−experiment well syncytia number/control well syncytia number)×100

[3] = tested on: HIV-1IIIB; assay: Inhibition of replication in HIV-1IIIB acute infectious C8166 cells (p24 antigen capture ELISA); conditions: for EC50: Human immunodeficiency virus 1, 72 h, P24 antigen, HIV-1IIIB acute infectious C8166 cells, 3 days; for inhibitory effect on HIV-1 replication in vitro: statement in words
Experimental: as §1
5. Measurement of HIV-1 p24 Antigen with p24 Antigen Capture ELISA Method
The 1 μg/plate of anti-mouse IgG Fc antibody was paved at 4° C. for overnight; the plate was sealed with 5% skimmed milk powder 4° C. for overnight; 100 μl/well mouse anti-p24 monoclonal antibody was added at 37° C. for 1 h; 100 μl/well (1:100) diluted rabbit anti-p24 polyclonal antibody (homemade) was added for 1 h at 37° C.; 100 μl/well (1:20000) diluted goat anti-rabbit IgG HRP was added for 1 h at 37° C.; OPD substrate reaction solution was added. After 10 min, 2M sulfuric acid was added to stop the reaction. The OD value was determined by Elx800 ELISA, and the wavelength was measured as 490/630 nm. The inhibition rate and EC50 of the drug on the p24 antigen replication and expression of HIV-1, namely, the concentration of the drug inhibiting 50% HIV-1 p24 antigen were calculated, namely, the concentration of the drug inhibiting 50% HIV-1 p24 antigen expression was calculated.
8. Inhibition Effect of Samples on Replication in Experiment Strain HIV-1IIIB Acute Infectious C8166 Cells
4×10^5 cells/ml C8166 cells and HIV-1IIIB MOI (multiplicity of infection=0.04) are infected for 2 h at 37° C., the obtained mixture is washed three times with PBS to remove free virus ions, 100 μl of cells are inoculated onto the 96-well plate containing 100 μl of to-be-detected compounds having different dilutions and cultured for 3 days under the conditions of 37° C. and 5% CO2. The cultural supernatant is centrifuged and then collected, and finally lysed and inactivated with 0.5% Triton X-100. The inhibition effect of the drug on HIV-1 replication is detected by using the p24 antigen capture ELISA method.
as §2
3. HIV-1 p24 antigen expression inhibition rate (%)=(1−experiment well OD value/control well OD value)×100

[4] = C8166 cells (T lymphocytic cell line), C8166 cells, MTT, 3 days, read-out: CC50

Q: What does the source list for `CC(C)C1CSC2Cn3cc(C(=O)NCc4ccc(F)cc4F)c(=O)c(O)c3C(=O)N21` (stereo not shown) [Compound 5]?
A: CC50 at 3 days [1, 4]: 16100 ± 300 nM; EC50 ([2]; values given in pM): 162 ± 18.1 pM; EC50 ([3]; values given in pM): 188 ± 22.8 pM

Q: Which CC50 at 3 days [1, 4] does the source give for `C[C@@H]1CCSC2Cn3cc(C(=O)NCc4ccc(F)cc4F)c(=O)c(O)c3C(=O)N21` (stereo partly shown) [Compound 18] here?
A: Its CC50 at 3 days is 14000 ± 210 nM.

Q: And the EC50 ([2]; values given in pM)?
A: The EC50 was 10.2 ± 2.11 pM.

Q: And the EC50 ([3]; values given in pM)?
A: The EC50 was 11.1 ± 2.09 pM.

Q: What about the “inhibitory effect on HIV-1 replication in vitro” value (“inhibitory effect” for short) [3] of the same compound?
A: Its value is “extremely strong inhibition effects”.

Q: What about the “inhibitory effect” value ([3]; listed as compound 18) of the same compound?
A: Its value is “strong inhibitory effect”.

Q: With `CC[C@@H]1CSC2Cn3cc(C(=O)NCc4ccc(F)cc4F)c(=O)c(O)c3C(=O)N21` (stereo partly shown) [Compound 3] as the compound, how does the CC50 at 3 days [1, 4] read?
A: The CC50 at 3 days was 18600 ± 350 nM.

Q: What about the EC50 ([2]; values given in pM) of the same compound?
A: Its EC50 is 28.9 ± 5.11 pM.

Q: And the EC50 ([3]; values given in pM)?
A: The EC50 was 35.1 ± 6.02 pM.

Q: With `O=C(NCc1c(F)cc(F)cc1F)c1cn2c(c(O)c1=O)C(=O)N1C(C2)S[C@@H]2CC[C@H]1C2` (stereo partly shown) [Compound 34] as the compound, how does the CC50 at 3 days [1] read?
A: The CC50 at 3 days was 20700 ± 320 nM.

Q: And the EC50 ([2]; values given in pM)?
A: Its EC50 is 35.9 ± 6.11 pM.

Q: What about the EC50 ([3]; values given in pM) of the same compound?
A: Its EC50 is 38.1 ± 6.52 pM.

Q: And the “inhibitory effect” value [3]?
A: Its value is “extremely strong inhibition effects”.

Q: And the “inhibitory effect” value ([3]; listed as compound 34)?
A: Its value is “strong inhibitory effect”.

Q: Which results are given for `CC(C)OC(=O)OCOP(=O)(CO[C@H](C)Cn1cnc2c(N)ncnc21)OCOC(=O)OC(C)C` [TDF, tenofovir disoproxil fumarate, reference compound]?
A: CC50 at 3 days [1, 4]: 157000 ± 21400 nM; EC50 ([2]; values in nM): 12100 ± 11300 pM; EC50 ([3]; values in nM): 8070 ± 4720 pM

Q: What does the source list for `C[C@@H]1CSC2Cn3cc(C(=O)NCc4ccc(F)cc4F)c(=O)c(O)c3C(=O)N21` (stereo partly shown) [Compound 1]?
A: CC50 at 3 days [1, 4]: 20300 ± 210 nM; EC50 ([2]; values given in pM): 187 ± 31.1 pM; EC50 ([3]; values given in pM): 201 ± 33.3 pM

Q: For `O=C(NCc1ccc(F)cc1F)c1cn2c(c(O)c1=O)C(=O)N1C(C2)SC[C@@H]1c1ccccc1` (stereo partly shown) [Compound 10], which CC50 at 3 days [1, 4] is on record?
A: The CC50 at 3 days was 45160 ± 410 nM.

Q: And the EC50 ([2]; values in nM)?
A: The EC50 was 3820 ± 510 pM.

Q: And the EC50 ([3]; values in nM)?
A: The EC50 was 4160 ± 580 pM.

Q: Which results are given for `CC[C@H]1CSC2Cn3cc(C(=O)NCc4ccc(F)cc4F)c(=O)c(O)c3C(=O)N21` (stereo partly shown) [Compound 4]?
A: CC50 at 3 days [1, 4]: 18600 ± 350 nM; EC50 ([2]; values given in pM): 28.9 ± 5.11 pM; EC50 ([3]; values given in pM): 35.1 ± 6.02 pM

Q: For `C[C@@H]1CCO[C@H]2Cn3cc(C(=O)NCc4ccc(F)cc4F)c(=O)c(O)c3C(=O)N12` [Dolutegravir, reference compound], which CC50 at 3 days [1, 4] is on record?
A: Its CC50 at 3 days is 26600 ± 2200 nM.

Q: What about the EC50 ([2]; values in nM) of the same compound?
A: The EC50 was 2130 ± 330 pM.

Q: And the EC50 ([3]; values in nM)?
A: The EC50 was 1050 ± 120 pM.

Q: Which results are given for `CC(C)C[C@H]1CSC2Cn3cc(C(=O)NCc4ccc(F)cc4F)c(=O)c(O)c3C(=O)N21` (stereo partly shown) [Compound 20]?
A: CC50 at 3 days [1, 4]: 18300 ± 190 nM; EC50 ([2]; values given in pM): 125 ± 17 pM; EC50 ([3]; values given in pM): 148 ± 20.1 pM

Q: Which CC50 at 3 days [1, 4] does the source give for `C[C@H]1CSC2Cn3cc(C(=O)NCc4ccc(F)cc4F)c(=O)c(O)c3C(=O)N21` (stereo partly shown) [Compound 2] here?
A: The CC50 at 3 days was 11330 ± 110 nM.

Q: And the EC50 ([2]; values given in pM)?
A: Its EC50 is 15.7 ± 2.61 pM.

Q: What about the EC50 ([3]; values given in pM) of the same compound?
A: Its EC50 is 18.1 ± 2.86 pM.

Q: What about the “inhibitory effect” value [3] of the same compound?
A: Its value is “extremely strong inhibition effects”.

Q: What about the “inhibitory effect” value ([3]; listed as compound 2) of the same compound?
A: Its value is “strong inhibitory effect”.

Q: Which CC50 at 3 days [1, 4] does the source give for `C[C@H]1CSC2Cn3cc(C(=O)NCc4ccc(F)cc4)c(=O)c(O)c3C(=O)N21` (stereo partly shown) [Compound 66] here?
A: Its CC50 at 3 days is 20100 ± 210 nM.

Q: What about the EC50 ([2]; values given in pM) of the same compound?
A: The EC50 was 75.3 ± 8.61 pM.

Q: What about the EC50 ([3]; values given in pM) of the same compound?
A: Its EC50 is 83.6 ± 10.9 pM.

Q: What about the “inhibitory effect” value [3] of the same compound?
A: Its value is “strong inhibitory effect”.

Q: With `O=C(NCc1ccc(F)cc1F)c1cn2c(c(O)c1=O)C(=O)N1C(C2)SC[C@@H]1Cc1ccccc1` (stereo partly shown) [Compound 12] as the compound, how does the CC50 at 3 days [1, 4] read?
A: Its CC50 at 3 days is 28600 ± 320 nM.

Q: What about the EC50 ([2]; values given in pM) of the same compound?
A: Its EC50 is 526 ± 77.1 pM.

Q: And the EC50 ([3]; values given in pM)?
A: Its EC50 is 589 ± 86.1 pM.

Q: Which results are given for `CC(C)(C)[C@H]1CSC2Cn3cc(C(=O)NCc4ccc(F)cc4F)c(=O)c(O)c3C(=O)N21` (stereo partly shown) [Compound 8]?
A: CC50 at 3 days [1, 4]: 26300 ± 350 nM; EC50 ([2]; values given in pM): 716 ± 103 pM; EC50 ([3]; values given in pM): 781 ± 113 pM

Q: Which results are given for `CC(C)[C@H]1CSC2Cn3cc(C(=O)NCc4ccc(F)cc4F)c(=O)c(O)c3C(=O)N21` (stereo partly shown) [Compound 6]?
A: CC50 at 3 days [1, 4]: 22600 ± 480 nM; EC50 ([2]; values given in pM): 182 ± 20.3 pM; EC50 ([3]; values given in pM): 208 ± 36.1 pM
